In US20220288004A1, “TREATMENT AND PREVENTION OF AGING RELATED-DISEASE AND/OR AGING BY THE INHIBITION OF SPHINGOLIPIDS” (ECOLE POLYTECHNIQUE FEDERALE DE LAUSANNE (EPFL), priority 2019, published 2022):

Assays:
[1] = tested on: freshly isolated MuSCs from aged C57BL/6JRj mice; assay: Ex vivo analysis of MuSCs cultured in myriocin containing medium; type: cell-based, mouse
Procedure: Ex vivo analysis of MuSCs. MuSCs were isolated as described above, and seeded in 96- or 48-well plates. The cells were incubated in 30 μM myriocin containing medium (Ham's F-10 nutrient mixture, FBS 20%, basic fibroblast growth factor 2.5 ng/mL, penicillin 100 U/mL, streptomycin 100 μg/mL) for 72 hours. PFA 4% was applied for 15 min, the cells were washed three times for 10 min with PBS, and were blocked in 2% BSA in PBS. The cells were then incubated in primary antibodies MYOD (1:50, LabForce) and MYOG (1:50, Santa Cruz) overnight at 4° C. Secondary antibodies were coupled with Alexa-488 or Alexa-568 fluorochromes (Life Technology) and mounted with Dako Mounting Medium. Leica DMI 4000 microscope was used to image the cells. Quantification of the MYOD+ and MYOG+ cell number was based on more than 500 cells per condition.

[2] = tested on: sphingolipid de novo synthesis pathway; assay: Measurement of sphingolipids in tissues of aged mice treated with myriocin; type: in vivo, mouse
Procedure: To examine whether a causal relationship could underlie the correlation between SphPC1 and muscle mass and function, it was tested whether inhibition of sphingolipid de novo biosynthesis pathway could protect against age-related muscle dysfunction. Aged (18-month-old) C57Bl/6JRj mice were treated for 5 months on chow diet with myriocin, a specific inhibitor of SPT, the first and rate-limiting enzyme of the sphingolipid de novo synthesis pathway, and whose expression in skeletal muscle was negatively correlated with muscular fitness in BXDs.
Animals. Young (2-month-old) and aged (18-month-old) C57Bl/6JRj mice were purchased from Janvier Labs. EchoMRI measuring the fat and lean body mass, were measured before and after the treatment. The dose of myriocin was 0.4 mg/kg/3 times a week. Myriocin (Enzo Life Sciences, Farmingdale, N.Y.) was first dissolved in DMSO which was then mixed with PBS so that each mouse received 1.5 μL DMSO per injection. Animals were fed on a standard chow diet. All animals were housed in micro-isolator cages in a room illuminated from 7:00 AM to 7:00 PM with ad libitum access to diet and water. All the animal experiments are authorized by animal license 2890.1 and 3341 in Canton of Vaud, Switzerland.
Measurement of sphingolipids. Plasma (100 μL) and weighed tissue samples (20-60 mg) were transferred to 2 ml Safe-Lock PP-tubes, and extracted. In brief, samples were homogenized using two 6 mm steal beads on a Mixer Mill (Retsch, Haan, GER; 2×10 sec, frequency 30/s) in 700 μL MTBE/MeOH (3/1, v/v) containing 500 μmol butylated hydroxytoluene, 1% acetic acid, and 200 μmol of internal standards (IS, d18:1/17:0 ceramide, d18:1/17:0 sphingomyelin, Avanti Polar Lipids, Alabaster, Ala., USA) per sample. Total lipid extraction was performed under constant shaking for 30 min at RT. After addition of 140 μL dH2O and further incubation for 30 min on RT, samples were centrifuged at 1,000×g for 15 min to establish phase separation. 500 μL of the upper, organic phase were collected and dried under a stream of nitrogen. Lipids were resolved in 700 μL 2-propanol/methanol/water (7/2.5/1, v/v/v) for UPLC-MS analysis. Remaining tissues were dried, solubilized in NaOH (0.3 N) at 65° C. for 4 h and the protein content was determined using Pierce™ BCA reagent (Thermo Fisher Scientific, Waltham, Mass., USA) and BSA as standard.
Chromatographic separation was modified after Knittelfelder et al. using an ACQUITY-UPLC system (Waters Corporation), equipped with a Luna omega C18 column (2.1×50 mm, 1.6 μm; Phenomenex) starting a 20 min linear gradient with 80% solvent A (MeOH/H2O, 1/1, v/v; 10 mM ammonium acetate, 0.1% formic acid, 8 μM phosphoric acid). The column compartment was kept on 50° C. A EVOQ Elite™ triple quadrupole mass spectrometer (Bruker) equipped with an ESI source was used for detection of lipids in positive ionization mode. Lipid species were analyzed by selected reaction monitoring (ceramide, [M+H]+ to m/z 264.3, 22 eV, 60 ms; sphingomyelin, [M+H]+ to m/z 184.1, 20 eV, 40 ms; resolution 0.7 Q1/Q3). Data acquisition was done by MS Workstation (Bruker). Data were normalized for recovery, extraction-, and ionization efficacy by calculating analyte/IS ratios (AU) and expressed as AU/g tissue or AU/mL plasma.
Measurement of deoxysphingolipids. […] An aliquot (50 μL) of homogenate was dried under air and resuspended in RIPA buffer for protein quantification using BCA assay (BCA Protein Assay, Lambda, Biotech Inc., US). […]

[3] = tested on: aged C57Bl/6JRj mice; assay: Novel object recognition in aged mice; type: in vivo, mouse
Procedure: Novel Object Recognition. The novel object recognition task is used to assess recognition memory of mice. It is based on the natural tendency of rodents to explore a novel object by comparison to a familiar one. A habituation phase is realized to familiarize animals to the arena context. 24 hours later, during the acquisition phase (learning phase), two identical objects are placed in the arena and presented to the mouse. During the retention phase (3 hours following the acquisition phase), one of the two familiar objects is replaced by a novel one. Measures of duration and number of exploration for each object are realized, during both acquisition and retention phases, and a Recognition Index is calculated.

[4] = quadriceps of aged myriocin treated mice

CCCCCCC(=O)CCCCCCC=CCC(O)C(O)C(N)(CO)C(=O)O (stereo not shown) [myriocin, 2-Amino-3,4-dihydroxy-2-(hydroxymethyl)-14-oxoicos-6-enoic acid]
MYOD protein level ([1]; 30 μM myriocin, 72 h, vs DMSO): elevated | MYOG protein level ([1]; 30 μM myriocin, 72 h, vs DMSO): elevated | Ki67+ MuSC count ([1]; MuSCs from untreated aged mice, 72 h in myriocin containing medium vs DMSO): higher | total ceramide contents of skeletal muscle ([2]; aged (18-month-old) C57Bl/6JRj mice, myriocin 0.4 mg/kg i.p. 3 times per week, 5 months, vs DMSO): reduced | skeletal muscle deoxysphingolipid contents ([2]; aged mice, myriocin 0.4 mg/kg i.p. 3 times per week, 5 months, smaller effect than on canonical sphingolipids): reduced | sphinganine (SA) level in skeletal muscle [2, 4]: lower levels | sphingosine (SO) level in skeletal muscle [2, 4]: lower levels | individual ceramide species in skeletal muscle ([2]; quadriceps, aged mice, myriocin 0.4 mg/kg i.p. 3 times per week, 5 months): reduced | recognition index ([3]; myriocin 5 months vs DMSO): higher | time exploring novel object relative to familiar object ([3]; myriocin 5 months vs DMSO treated counterparts): more
